Among the test systems are A498; ACHN; COLO 205; EKVX; HCT-15; HOP-92; Hs-578T; IGROV-1; M14; MDA-MB-231; NCI-H226; OVCAR-5; RPMI-8226; SF-295; SK-OV-3; SR; T47D; TK-10; MOLT-4; RXF 393.
Holding throughout (assay): NCI-60 cell line screen, 48 h

The record followed here is ChEMBL document CHEMBL1201862, “PubChem BioAssay data set” (2004).

Each structure is given as a SMILES string.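 All cell lines were grown in 96-well plates and treated with compound for 48 hours. GI50 is the concentration that inhibits growth by half.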 The source made the active and inactive calls. No stated cut-off is given here; in the data, active = GI50 up to about 1.1 µM and inactive = higher.

Consider `Brc1ccc2nc(-c3cccs3)nc(N3CCN(c4ccccc4)CC3)c2c1`, for which the GI50 was > 100 µM (inactive) with A498; > 100 µM (inactive) in the experiment on ACHN; > 100 µM (inactive) in the experiment with COLO 205; > 100 µM (inactive) in the experiment with EKVX; greater than 100 µM in the experiment on HCT-15; > 100 µM (inactive) in the experiment on HOP-92. Besides, the GI50 with Hs-578T, with IGROV-1, with M14, with MDA-MB-231, with NCI-H226 and with OVCAR-5 was > 100 µM (inactive) each time. Besides, the GI50 in the experiment on RPMI-8226, in the experiment on SF-295, in the experiment with SK-OV-3, with SR, with T47D and in the experiment with TK-10 was > 100 µM (inactive) in each case.
`Cc1cc(-c2cc(C(C)(C)C)c(O)c(C(C)(C)C)c2)c(C)cc1-c1cc(C(C)(C)C)c(O)c(C(C)(C)C)c1`: the GI50 in the experiment on A498 is 27.3 µM (inactive); in the experiment on ACHN, > 100 µM (inactive); with COLO 205, > 100 µM (inactive); in the experiment with EKVX it was > 100 µM (inactive); in the experiment with HCT-15, greater than 100 µM; in the experiment on HOP-92, 12.1 µM (inactive). For the same compound, the GI50 in the experiment on Hs-578T, in the experiment on IGROV-1, in the experiment on M14, with MDA-MB-231, in the experiment with MOLT-4 and with NCI-H226 was > 100 µM (inactive) throughout. For the same compound, the GI50 in the experiment with OVCAR-5 is > 100 µM (inactive); in the experiment with RPMI-8226 it was > 100 µM (inactive); in the experiment with SF-295 it was > 100 µM (inactive); in the experiment with SK-OV-3 it was > 100 µM (inactive); with SR, 41.2 µM (inactive); in the experiment on T47D it was > 100 µM (inactive). For the same compound, in the experiment on TK-10, the GI50 is > 100 µM (inactive).
Consider `CN(C)CS/C(N)=N\C(O)C(Cl)(Cl)Cl` (stereo unspecified), for which the GI50 in the experiment with A498 was > 100 µM (inactive); in the experiment with ACHN, > 100 µM (inactive); with EKVX, > 100 µM (inactive); in the experiment on HCT-15, greater than 100 µM; with HOP-92, > 100 µM (inactive); in the experiment on Hs-578T, > 100 µM (inactive). Further, the GI50 in the experiment on IGROV-1, in the experiment on M14, in the experiment with MDA-MB-231, in the experiment with MOLT-4, with NCI-H226 and in the experiment on OVCAR-5 was > 100 µM (inactive) throughout. For the same compound, the GI50 in the experiment on RXF 393 was > 100 µM (inactive); with SF-295, > 100 µM (inactive); with SR, 82.2 µM (inactive); in the experiment with T47D it was > 100 µM (inactive); in the experiment on TK-10 it was > 100 µM (inactive).
For `COC(=O)C1(C(=O)OC)Cc2ccc(OC)cc2C2=C1C(=O)c1ccccc1C2=O`, the GI50 was 18.3 µM (inactive) in the experiment with A498; 5.74 µM (inactive) with ACHN; 20.3 µM (inactive) in the experiment with COLO 205; 4.46 µM (inactive) in the experiment with EKVX; 10.7 µM with HCT-15; 2.69 µM (inactive) in the experiment with HOP-92. The GI50 in the experiment with Hs-578T is 8.93 µM (inactive); in the experiment on IGROV-1, 2.77 µM (inactive); in the experiment on M14, 18.4 µM (inactive); with MDA-MB-231 it was 1.99 µM (inactive); in the experiment with MOLT-4, 1.53 µM (inactive); in the experiment with NCI-H226, 17.7 µM (inactive). Besides, the GI50 with OVCAR-5 is 6.01 µM (inactive); with SF-295, 3.77 µM (inactive); in the experiment on SR it was 3.54 µM (inactive); in the experiment on T47D, 1.51 µM (inactive); in the experiment with TK-10, 18.4 µM (inactive).
Consider `CO[C@H]1O[C@@H]2CO[C@@H](c3ccccc3)O[C@H]2C[C@]12CCC/C=C\CO2`, for which the GI50 is 14 µM (inactive) in the experiment on A498; 15.5 µM (inactive) with ACHN; 13.9 µM (inactive) in the experiment with COLO 205; 11.6 µM (inactive) in the experiment with EKVX; 13 µM in the experiment with HCT-15; 13.5 µM (inactive) with HOP-92. For the same compound, the GI50 was 16.4 µM (inactive) with Hs-578T; 15.8 µM (inactive) in the experiment with M14; 16.7 µM (inactive) in the experiment on MDA-MB-231; 12.9 µM (inactive) with MOLT-4; 18.3 µM (inactive) in the experiment on NCI-H226; 60.1 µM (inactive) in the experiment with OVCAR-5. Besides, the GI50 with RXF 393 is 13.9 µM (inactive); with SF-295, 25.8 µM (inactive); with SK-OV-3 it was 37.7 µM (inactive); in the experiment on SR, 13.7 µM (inactive); in the experiment with T47D it was 18 µM (inactive); in the experiment on TK-10 it was 22.6 µM (inactive).
Turning to `Cc1ccc(Sc2ccccc2C23OC(C)(C4C(=O)N(c5ccccc5)C(=O)C42)N(C)C3=O)cc1` (stereo unspecified), the GI50 in the experiment with A498 is 86.9 µM (inactive); in the experiment with ACHN, > 100 µM (inactive); in the experiment on COLO 205, > 100 µM (inactive); in the experiment with EKVX, > 100 µM (inactive); in the experiment with HCT-15 it was greater than 100 µM; with HOP-92 it was 42.8 µM (inactive). Moreover, the GI50 was 59.4 µM (inactive) in the experiment on Hs-578T; > 100 µM (inactive) in the experiment on IGROV-1; > 100 µM (inactive) with M14; > 100 µM (inactive) in the experiment on MDA-MB-231; > 100 µM (inactive) with MOLT-4; > 100 µM (inactive) in the experiment on NCI-H226. The GI50 in the experiment with OVCAR-5 was > 100 µM (inactive); in the experiment with RXF 393, 85.7 µM (inactive); with SF-295 it was > 100 µM (inactive); with SK-OV-3 it was > 100 µM (inactive); in the experiment with SR, > 100 µM (inactive); with T47D it was > 100 µM (inactive). Also, the GI50 in the experiment on TK-10 was > 100 µM (inactive).
For the compound `CCOC(=O)c1c(N2CCCC2)nsc1Nc1ccccc1`, the GI50 is > 100 µM (inactive) with A498; > 100 µM (inactive) in the experiment on ACHN; > 100 µM (inactive) in the experiment on COLO 205; > 100 µM (inactive) in the experiment on EKVX; greater than 100 µM in the experiment with HCT-15; 40.6 µM (inactive) in the experiment on HOP-92. For the same compound, the GI50 with Hs-578T was 60 µM (inactive); with IGROV-1, > 100 µM (inactive); in the experiment on M14, > 100 µM (inactive); in the experiment on MDA-MB-231 it was > 100 µM (inactive); in the experiment on MOLT-4, > 100 µM (inactive); with NCI-H226, > 100 µM (inactive). Further, the GI50 is 44.6 µM (inactive) in the experiment with OVCAR-5; > 100 µM (inactive) with RPMI-8226; > 100 µM (inactive) in the experiment on RXF 393; > 100 µM (inactive) with SF-295; > 100 µM (inactive) in the experiment with SR; > 100 µM (inactive) in the experiment with T47D. The GI50 in the experiment on TK-10 is > 100 µM (inactive).
Turning to `Cc1cc(=O)oc2cc(OC(=O)N(C)C)c(Cl)cc12`, the GI50 in the experiment on A498 is > 100 µM (inactive); in the experiment on ACHN, > 100 µM (inactive); with COLO 205, 95.9 µM (inactive); with EKVX, > 100 µM (inactive); with HCT-15 it was greater than 100 µM; in the experiment on HOP-92 it was 82 µM (inactive). Besides, the GI50 in the experiment with Hs-578T was > 100 µM (inactive); in the experiment with IGROV-1 it was > 100 µM (inactive); in the experiment with M14 it was 83.9 µM (inactive); with MDA-MB-231 it was > 100 µM (inactive); with MOLT-4, > 100 µM (inactive); in the experiment on NCI-H226 it was 29.3 µM (inactive). The GI50 in the experiment with OVCAR-5 was > 100 µM (inactive); with RPMI-8226 it was > 100 µM (inactive); in the experiment on RXF 393, 2 µM (inactive); in the experiment on SF-295, > 10 µM (inactive); in the experiment with SR, > 100 µM (inactive); in the experiment on T47D, 85.9 µM (inactive). In addition, the GI50 in the experiment on TK-10 was > 100 µM (inactive).
